Data: PubChem BioAssay (NCI)
“And” between values parts separate entries of the source, which are not always exact repeats. Equal values may be shown once.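 Cells were grown in 96-well plates and exposed to each compound for 48 hours at five concentrations; endpoints were interpolated linearly between bracketing concentrations, or set to the highest concentration if not reached. At the GI50, growth is halved. TGI marks complete inhibition of growth.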

How the values were obtained:
Assay in all cases: DTP human tumour cell line panel, 48 h
[1] = tested on: SF-268 CNS
[2] = tested on: OVCAR-8 ovarian
[3] = tested on: OVCAR-4 ovarian
[4] = tested on: HS 578T breast
[5] = tested on: U251 CNS
[6] = tested on: NCI-H226 lung
[7] = tested on: SF-539 CNS
[8] = tested on: MALME-3M melanoma
[9] = tested on: M14 melanoma
[10] = tested on: COLO 205 colon

SMILES | GI50 [1] [µM] | TGI [1] | GI50 [2] [µM] | TGI [2] | GI50 [3] [µM] | TGI [3] [µM] | GI50 [4] [µM] | TGI [4] [µM] | GI50 [5] [µM] | TGI [5] | GI50 [6] [µM] | TGI [6] [µM] | GI50 [7] [µM] | TGI [7] | GI50 [8] [µM] | TGI [8] | GI50 [9] [µM] | TGI [9] [µM] | GI50 [10] [µM] | TGI [10]
CC12CCC(O)CC1=CCC1C2CCC2(C)C(c3cccnc3)=CCC12 (stereo not given) | 95.2 | > 100 µM | > 100 | > 100 µM | > 100 | > 100 | > 100 | > 100 | 70.1 | > 100 µM | > 100 | > 100 | > 100 | > 100 µM | > 100 | > 100 µM | > 100 | > 100 | > 100 | > 100 µM
C#C/C=C/CC1OC(C(Br)CC)CC(Br)C2CC1O2 (stereo not given) |  | > 100 µM |  | > 100 µM |  | > 100 |  | > 100 |  | > 100 µM |  | > 100 |  | > 100 µM |  | 25.7 µM |  | > 100 |  | > 100 µM
C[C@@](O)(/C=C/[C@H]1CC=CC(=O)O1)[C@@H](C[C@@H](O)\C=C/C=C\C=C\CO)OP(=O)(O)O | 12.2 | 83.2 µM and 99.1 µM | 12.3 | 90.7 µM and 86.5 µM |  | 25.5 |  | 22.6 | 13.3 | 49 µM and 55.6 µM |  | 18.7 | 5.28 | 11.5 µM and 23 µM | 6.94 | 16 µM and 14.3 µM |  | 2.69 |  | 18.2 µM and 18.7 µM
